Laboratory results: the kinase profiling compilation of Christmann-Franck et al. (2016)

Experiments:
Assay in all cases: radiometric filter-binding kinase assay, Kinase HotSpot
Conditions in all cases: compound 0.5 µM; ATP 10 µM
HCK (human) = HCK (human) (UniProt P08631)
MAP3K11 (human) = MAP3K11 (human) (UniProt Q16584)
SRC (human) = SRC (human) (UniProt P12931)
[1] = tested on: PRKCQ (human), Q04759 [P330L]
DYRK3 (human) = DYRK3 (human) (UniProt O43781)
MAPK10 (human) = MAPK10 (human) (UniProt P53779)
MERTK (human) = MERTK (human) (UniProt Q12866)
CHEK1 (human) = CHEK1 (human) (UniProt O14757)
GSG2 (human) = GSG2 (human) (UniProt Q8TF76)
MARK1 (human) = MARK1 (human) (UniProt Q9P0L2)
CDK4 CCND1 (human) = CDK4 CCND1 (human) (UniProt P24385+P11802)
STK10 (human) = STK10 (human) (UniProt O94804)
CAMK2A (human) = CAMK2A (human) (UniProt Q9UQM7)
CLK3 (human) = CLK3 (human) (UniProt P49761)
STK24 (human) = STK24 (human) (UniProt Q9Y6E0)
NUAK2 (human) = NUAK2 (human) (UniProt Q9H093)
LIMK1 (human) = LIMK1 (human) (UniProt P53667)
WNK3 (human) = WNK3 (human) (UniProt Q9BYP7)
[2] = target: JAK1 JH1 catalytic (human) (UniProt P23458)
MAP3K8 (human) = MAP3K8 (human) (UniProt P41279)
PRKCH (human) = PRKCH (human) (UniProt P24723)
NEK9 (human) = NEK9 (human) (UniProt Q8TD19)
NLK (human) = NLK (human) (UniProt Q9UBE8)
MLTK (human) = MLTK (human) (UniProt Q9NYL2)
CDC42BPB (human) = CDC42BPB (human) (UniProt Q9Y5S2)
TGFBR2 (human) = TGFBR2 (human) (UniProt P37173)
TAOK2 (human) = TAOK2 (human) (UniProt Q9UL54)
PDGFRA (human) = PDGFRA (human) (UniProt P16234)
SIK2 (human) = SIK2 (human) (UniProt Q9H0K1)
IRAK1 (human) = IRAK1 (human) (UniProt P51617)
OXSR1 (human) = OXSR1 (human) (UniProt O95747)
ROCK1 (human) = ROCK1 (human) (UniProt Q13464)
ACVRL1 (human) = ACVRL1 (human) (UniProt P37023)
PLK2 (human) = PLK2 (human) (UniProt Q9NYY3)
RPS6KA4 KD2 (human) = RPS6KA4 KD2 (human) (UniProt O75676)
ALK (human) = ALK (human) (UniProt Q9UM73)
MAPK13 (human) = MAPK13 (human) (UniProt O15264)
EPHA8 (human) = EPHA8 (human) (UniProt P29322)
Chain of EPHA8 (human) (P29322 whole entry, looked up): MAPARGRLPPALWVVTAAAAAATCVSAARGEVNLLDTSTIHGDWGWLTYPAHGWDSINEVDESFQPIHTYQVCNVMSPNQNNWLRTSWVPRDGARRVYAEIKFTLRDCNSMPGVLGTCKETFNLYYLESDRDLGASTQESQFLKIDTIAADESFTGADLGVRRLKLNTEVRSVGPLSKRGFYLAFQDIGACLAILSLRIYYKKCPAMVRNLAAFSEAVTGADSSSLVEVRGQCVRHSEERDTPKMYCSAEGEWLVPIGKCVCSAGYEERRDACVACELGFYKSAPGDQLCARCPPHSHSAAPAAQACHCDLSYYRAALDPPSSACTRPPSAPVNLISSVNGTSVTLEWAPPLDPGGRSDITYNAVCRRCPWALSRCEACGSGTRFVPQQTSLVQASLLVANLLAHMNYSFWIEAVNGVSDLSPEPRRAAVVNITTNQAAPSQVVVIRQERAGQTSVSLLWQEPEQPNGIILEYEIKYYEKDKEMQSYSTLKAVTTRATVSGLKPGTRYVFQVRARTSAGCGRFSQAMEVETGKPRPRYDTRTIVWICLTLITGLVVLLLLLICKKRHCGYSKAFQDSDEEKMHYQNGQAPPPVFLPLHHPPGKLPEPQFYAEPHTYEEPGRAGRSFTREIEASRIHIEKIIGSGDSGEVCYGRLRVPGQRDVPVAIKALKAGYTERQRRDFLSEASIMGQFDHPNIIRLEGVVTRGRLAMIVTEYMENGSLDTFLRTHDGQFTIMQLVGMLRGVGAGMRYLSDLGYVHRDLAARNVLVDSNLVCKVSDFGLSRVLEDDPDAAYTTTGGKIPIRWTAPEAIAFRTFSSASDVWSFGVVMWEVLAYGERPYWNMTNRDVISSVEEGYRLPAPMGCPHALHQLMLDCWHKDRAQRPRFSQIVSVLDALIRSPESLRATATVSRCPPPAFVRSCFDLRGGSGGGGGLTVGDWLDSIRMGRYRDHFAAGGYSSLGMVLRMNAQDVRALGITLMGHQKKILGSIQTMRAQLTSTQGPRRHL

Chain of GSG2 (human) (Q8TF76 whole entry, looked up): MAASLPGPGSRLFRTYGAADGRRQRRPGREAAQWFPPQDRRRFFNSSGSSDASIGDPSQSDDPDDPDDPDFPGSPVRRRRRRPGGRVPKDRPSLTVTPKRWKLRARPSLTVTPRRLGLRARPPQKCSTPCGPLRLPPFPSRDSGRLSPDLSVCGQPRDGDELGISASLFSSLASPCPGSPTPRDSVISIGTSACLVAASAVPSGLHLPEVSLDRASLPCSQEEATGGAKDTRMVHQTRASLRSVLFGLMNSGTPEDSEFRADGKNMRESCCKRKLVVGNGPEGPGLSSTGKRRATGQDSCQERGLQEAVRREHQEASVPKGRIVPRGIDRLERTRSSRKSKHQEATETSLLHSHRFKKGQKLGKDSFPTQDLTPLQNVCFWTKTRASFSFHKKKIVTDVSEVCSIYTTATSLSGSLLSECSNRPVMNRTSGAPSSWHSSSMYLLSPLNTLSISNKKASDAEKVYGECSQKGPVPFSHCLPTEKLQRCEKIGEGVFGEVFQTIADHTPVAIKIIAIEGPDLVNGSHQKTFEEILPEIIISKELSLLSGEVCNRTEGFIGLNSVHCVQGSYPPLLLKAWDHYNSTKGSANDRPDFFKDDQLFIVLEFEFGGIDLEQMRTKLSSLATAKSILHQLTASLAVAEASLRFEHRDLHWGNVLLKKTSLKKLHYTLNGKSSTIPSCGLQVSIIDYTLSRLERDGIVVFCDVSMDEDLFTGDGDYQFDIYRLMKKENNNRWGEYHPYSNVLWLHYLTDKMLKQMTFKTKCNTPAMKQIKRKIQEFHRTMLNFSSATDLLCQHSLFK
Chain of CDK4 CCND1 (human) (P11802 whole entry, looked up): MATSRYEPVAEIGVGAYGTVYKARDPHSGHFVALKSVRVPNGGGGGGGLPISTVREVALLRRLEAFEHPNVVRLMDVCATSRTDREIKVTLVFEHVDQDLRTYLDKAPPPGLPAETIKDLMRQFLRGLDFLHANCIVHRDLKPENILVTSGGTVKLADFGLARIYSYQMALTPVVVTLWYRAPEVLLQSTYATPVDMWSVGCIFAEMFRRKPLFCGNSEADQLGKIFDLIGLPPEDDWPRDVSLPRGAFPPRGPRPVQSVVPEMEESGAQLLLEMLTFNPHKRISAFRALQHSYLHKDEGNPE
Chain of CDK4 CCND1 (human) (P24385 whole entry, looked up): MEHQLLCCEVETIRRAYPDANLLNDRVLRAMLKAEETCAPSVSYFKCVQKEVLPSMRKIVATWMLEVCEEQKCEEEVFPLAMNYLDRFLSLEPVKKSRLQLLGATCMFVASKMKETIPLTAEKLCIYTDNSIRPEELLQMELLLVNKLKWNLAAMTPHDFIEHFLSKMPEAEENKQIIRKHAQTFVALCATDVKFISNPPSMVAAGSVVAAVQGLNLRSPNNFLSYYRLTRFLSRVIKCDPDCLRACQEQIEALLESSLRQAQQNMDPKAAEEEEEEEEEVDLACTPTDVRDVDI
Chain of MLTK (human) (Q9NYL2 whole entry, looked up): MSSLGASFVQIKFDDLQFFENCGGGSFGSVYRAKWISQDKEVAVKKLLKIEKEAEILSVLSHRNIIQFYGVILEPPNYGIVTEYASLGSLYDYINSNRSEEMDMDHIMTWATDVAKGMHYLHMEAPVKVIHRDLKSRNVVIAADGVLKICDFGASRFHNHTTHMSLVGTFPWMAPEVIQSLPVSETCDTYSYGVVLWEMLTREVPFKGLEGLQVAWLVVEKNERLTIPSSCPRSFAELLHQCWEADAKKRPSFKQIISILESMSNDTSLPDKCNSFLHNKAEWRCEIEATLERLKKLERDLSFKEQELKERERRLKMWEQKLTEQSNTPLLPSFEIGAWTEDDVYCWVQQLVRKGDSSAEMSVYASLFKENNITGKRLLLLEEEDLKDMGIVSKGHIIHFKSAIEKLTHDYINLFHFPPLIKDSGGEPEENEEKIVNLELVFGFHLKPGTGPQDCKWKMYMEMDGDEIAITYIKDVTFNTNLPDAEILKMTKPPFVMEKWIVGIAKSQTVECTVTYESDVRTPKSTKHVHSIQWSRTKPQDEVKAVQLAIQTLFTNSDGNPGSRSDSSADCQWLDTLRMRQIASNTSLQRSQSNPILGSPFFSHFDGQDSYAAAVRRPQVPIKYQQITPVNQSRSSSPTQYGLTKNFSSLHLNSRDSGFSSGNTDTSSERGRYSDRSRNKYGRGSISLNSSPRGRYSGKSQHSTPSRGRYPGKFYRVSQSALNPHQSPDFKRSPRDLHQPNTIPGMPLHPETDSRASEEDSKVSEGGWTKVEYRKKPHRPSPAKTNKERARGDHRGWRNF
Chain of LIMK1 (human) (P53667 whole entry, looked up): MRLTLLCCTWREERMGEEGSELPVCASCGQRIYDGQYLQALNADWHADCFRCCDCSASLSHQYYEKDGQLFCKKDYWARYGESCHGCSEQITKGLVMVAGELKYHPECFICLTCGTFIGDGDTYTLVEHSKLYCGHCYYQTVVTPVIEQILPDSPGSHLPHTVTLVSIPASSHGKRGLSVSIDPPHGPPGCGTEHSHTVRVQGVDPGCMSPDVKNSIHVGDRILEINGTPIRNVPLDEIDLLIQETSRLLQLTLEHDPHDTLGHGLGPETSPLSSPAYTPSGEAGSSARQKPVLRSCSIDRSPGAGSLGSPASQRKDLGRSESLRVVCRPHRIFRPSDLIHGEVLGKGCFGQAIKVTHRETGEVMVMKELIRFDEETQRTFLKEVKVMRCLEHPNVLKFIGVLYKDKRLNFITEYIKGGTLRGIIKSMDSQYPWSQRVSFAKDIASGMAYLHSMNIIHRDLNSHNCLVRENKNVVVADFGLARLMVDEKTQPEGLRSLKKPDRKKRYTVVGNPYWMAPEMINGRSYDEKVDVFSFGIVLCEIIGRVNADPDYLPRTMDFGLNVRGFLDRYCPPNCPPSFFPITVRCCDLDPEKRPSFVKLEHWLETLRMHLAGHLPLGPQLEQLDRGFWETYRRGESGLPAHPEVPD
Chain of CHEK1 (human) (O14757 whole entry, looked up): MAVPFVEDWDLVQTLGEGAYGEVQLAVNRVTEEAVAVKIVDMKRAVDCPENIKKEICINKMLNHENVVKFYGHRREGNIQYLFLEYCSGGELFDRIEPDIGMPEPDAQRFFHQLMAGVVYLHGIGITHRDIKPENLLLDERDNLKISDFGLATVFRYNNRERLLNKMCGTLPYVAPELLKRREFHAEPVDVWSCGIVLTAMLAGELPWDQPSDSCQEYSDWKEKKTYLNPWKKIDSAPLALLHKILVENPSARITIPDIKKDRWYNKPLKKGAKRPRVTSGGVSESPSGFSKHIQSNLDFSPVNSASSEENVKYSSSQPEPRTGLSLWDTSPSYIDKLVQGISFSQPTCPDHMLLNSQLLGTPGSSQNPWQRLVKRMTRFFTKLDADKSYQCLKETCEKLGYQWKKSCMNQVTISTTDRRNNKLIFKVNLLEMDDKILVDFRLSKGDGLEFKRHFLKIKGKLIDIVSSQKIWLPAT
Chain of ACVRL1 (human) (P37023 whole entry, looked up): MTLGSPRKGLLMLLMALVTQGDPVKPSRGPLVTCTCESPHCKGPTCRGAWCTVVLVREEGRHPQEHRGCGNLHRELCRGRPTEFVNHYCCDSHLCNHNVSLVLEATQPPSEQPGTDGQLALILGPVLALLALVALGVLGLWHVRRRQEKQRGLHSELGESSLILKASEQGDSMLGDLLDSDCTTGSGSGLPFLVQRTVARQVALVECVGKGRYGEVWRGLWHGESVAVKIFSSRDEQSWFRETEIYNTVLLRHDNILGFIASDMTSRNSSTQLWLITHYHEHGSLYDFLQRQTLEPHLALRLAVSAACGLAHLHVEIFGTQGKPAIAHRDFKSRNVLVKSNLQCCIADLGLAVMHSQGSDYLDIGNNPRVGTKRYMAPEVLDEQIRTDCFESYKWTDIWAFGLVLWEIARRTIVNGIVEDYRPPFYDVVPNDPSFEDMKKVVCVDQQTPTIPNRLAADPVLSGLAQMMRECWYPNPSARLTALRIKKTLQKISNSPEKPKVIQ

Compound | residual activity (HCK (human)) | residual activity (MAP3K11 (human)) | residual activity (SRC (human)) | residual activity [1] | residual activity (DYRK3 (human)) | residual activity (MAPK10 (human)) | residual activity (MERTK (human)) | residual activity (CHEK1 (human)) | residual activity (GSG2 (human)) | residual activity (MARK1 (human)) | residual activity (CDK4 CCND1 (human)) | residual activity (STK10 (human)) | residual activity (CAMK2A (human)) | residual activity (CLK3 (human)) | residual activity (STK24 (human)) | residual activity (NUAK2 (human)) | residual activity (LIMK1 (human)) | residual activity (WNK3 (human)) | residual activity [2] | residual activity (MAP3K8 (human)) | also measured
NC(=O)c1cccc(-c2cc(Nc3ccc(OC(F)(F)F)cc3)ncn2)c1 | 92.9% | 99.4% | 97% | 104% | 99.9% | 104% | 98.1% | 94.2% | 105% | 94.7% | 99.8% | 101% | 102% | 104% | 89.5% | 87.8% | 100% | 105% | 98.9% | 96.8% | residual activity (PRKCH (human)): 98.4%; residual activity (NEK9 (human)): 93.8%; residual activity (NLK (human)): 93.4%; residual activity (MLTK (human)): 102%; residual activity (CDC42BPB (human)): 93.2%; residual activity (TGFBR2 (human)): 94.9%; residual activity (TAOK2 (human)): 91%; residual activity (PDGFRA (human)): 91.8%; residual activity (SIK2 (human)): 108%; residual activity (IRAK1 (human)): 101%; residual activity (OXSR1 (human)): 97.9%; residual activity (ROCK1 (human)): 96.8%; residual activity (ACVRL1 (human)): 99.2%; residual activity (PLK2 (human)): 98%; residual activity (RPS6KA4 KD2 (human)): 85.8%; residual activity (ALK (human)): 103%; residual activity (MAPK13 (human)): 98.1%; residual activity (EPHA8 (human)): 94.5%
CCCCc1c(-c2ccc(OC)cc2)[nH]c2nccnc12 | 94.4% | 39.4% | 58.8% | 107% | 96.1% | 97.2% | 92.6% | 93.1% | 80% | 92.9% | 60.4% | 95.4% | 100% | 116% | 87.3% | 68% | 65.3% | 88.4% | 67.1% | 98.2% | residual activity (PRKCH (human)): 103%; residual activity (NEK9 (human)): 106%; residual activity (NLK (human)): 88.4%; residual activity (MLTK (human)): 83.6%; residual activity (CDC42BPB (human)): 92.5%; residual activity (TGFBR2 (human)): 74.8%; residual activity (TAOK2 (human)): 90.1%; residual activity (PDGFRA (human)): 90.3%; residual activity (SIK2 (human)): 98.4%; residual activity (IRAK1 (human)): 64.3%; residual activity (OXSR1 (human)): 102%; residual activity (ROCK1 (human)): 99.9%; residual activity (ACVRL1 (human)): 77%; residual activity (PLK2 (human)): 94.9%; residual activity (RPS6KA4 KD2 (human)): 89.4%; residual activity (ALK (human)): 96.7%; residual activity (MAPK13 (human)): 99.1%; residual activity (EPHA8 (human)): 103%
COc1ccc(C(=O)Nc2sc3c(c2C(N)=O)CCCC3)cc1OC | 109% | 96.8% | 100% | 97.5% | 98% | 84.5% | 85.4% | 112% | 82.8% | 97.9% | 95.9% | 93.9% | 100% | 63% | 93.9% | 99.5% | 93.2% | 96.4% | 104% | 106% | residual activity (PRKCH (human)): 101%; residual activity (NEK9 (human)): 94.6%; residual activity (NLK (human)): 93.7%; residual activity (MLTK (human)): 93.8%; residual activity (CDC42BPB (human)): 94.5%; residual activity (TGFBR2 (human)): 134%; residual activity (TAOK2 (human)): 97%; residual activity (PDGFRA (human)): 96.4%; residual activity (SIK2 (human)): 102%; residual activity (IRAK1 (human)): 79.8%; residual activity (OXSR1 (human)): 99.9%; residual activity (ROCK1 (human)): 107%; residual activity (ACVRL1 (human)): 110%; residual activity (PLK2 (human)): 106%; residual activity (RPS6KA4 KD2 (human)): 102%; residual activity (ALK (human)): 66.2%; residual activity (MAPK13 (human)): 109%; residual activity (EPHA8 (human)): 114%
CC(C)(C)c1cc(C=C(C#N)C#N)cc(Br)c1O | 66.1% | 97.4% | 87.4% | 98% | 102% | 92.5% | 97.3% | 100% | 67.2% | 98.8% | 115% | 95.4% | 104% | 122% | 96.3% | 99.6% | 98.5% | 106% | 107% | 104% | residual activity (PRKCH (human)): 100%; residual activity (NEK9 (human)): 103%; residual activity (NLK (human)): 93.6%; residual activity (MLTK (human)): 91.2%; residual activity (CDC42BPB (human)): 103%; residual activity (TGFBR2 (human)): 93.8%; residual activity (TAOK2 (human)): 96.5%; residual activity (PDGFRA (human)): 95.4%; residual activity (SIK2 (human)): 115%; residual activity (IRAK1 (human)): 105%; residual activity (OXSR1 (human)): 98%; residual activity (ROCK1 (human)): 82.9%; residual activity (ACVRL1 (human)): 105%; residual activity (PLK2 (human)): 92.6%; residual activity (RPS6KA4 KD2 (human)): 90.9%; residual activity (ALK (human)): 97.9%; residual activity (MAPK13 (human)): 98.5%; residual activity (EPHA8 (human)): 100%
Ic1cccc(CSc2nnc(-c3ccncc3)o2)c1 | 104% | 99.6% | 101% | 120% | 108% | 95.7% | 96.4% | 96.3% | 95.9% | 111% | 96.3% | 93.8% | 92.3% | 76.3% | 108% | 98.9% | 85.8% | 101% | 103% | 96.1% | residual activity (PRKCH (human)): 99.1%; residual activity (NEK9 (human)): 99.2%; residual activity (NLK (human)): 107%; residual activity (MLTK (human)): 96.7%; residual activity (CDC42BPB (human)): 96.6%; residual activity (TGFBR2 (human)): 121%; residual activity (TAOK2 (human)): 105%; residual activity (PDGFRA (human)): 90.1%; residual activity (SIK2 (human)): 100%; residual activity (IRAK1 (human)): 121%; residual activity (OXSR1 (human)): 105%; residual activity (ROCK1 (human)): 88%; residual activity (ACVRL1 (human)): 103%; residual activity (PLK2 (human)): 101%; residual activity (RPS6KA4 KD2 (human)): 92.1%; residual activity (ALK (human)): 101%; residual activity (MAPK13 (human)): 93.8%; residual activity (EPHA8 (human)): 91.5%
